Where two headings read alike, the source gives them in different places.
Assays:
SARS-CoV-2 = assay: microbe, parasite or virus in culture; format: cell-based; conditions: Severe acute respiratory syndrome coronavirus 2, VeroE6/TMPRSS2, 72 h, 50% SARS-CoV-2 infected cell death inhibitory concentration, VeroE6/TMPRSS2 cells, 3 days culture
SARS-CoV-2 3CL protease = SARS-CoV-2 3CL protease (Severe acute respiratory syndrome coronavirus 2, UniProt P0DTD1); assay: biochemical; conditions: 50% SARS-CoV-2 3CL protease inhibitory concentration, read-out: IC50

SMILES | EC50 (SARS-CoV-2; CellTiter-Glo 2.0) [nM] | IC50 (SARS-CoV-2 3CL protease; RapidFire MS) [nM] | EC50 (SARS-CoV-2; class symbols) [nM] | IC50 (SARS-CoV-2 3CL protease; given as class symbols) [nM]
Cn1cc2cc(Nc3nc(=O)n(-c4cncc(Cl)c4)c(=O)n3Cc3ccc(F)c(C#N)c3)c(F)cc2n1 [II-0525] | 533 | 16 |  | 
Cc1cncc(-n2c(=O)nc(Nc3cc4sc(NCC(F)(F)F)nc4cc3Cl)n(Cc3ccc(F)c(C#N)c3)c2=O)c1 [II-0526] |  |  | 1000 to 10000 | < 100
Cn1cnc(Cn2c(=O)nc(Nc3cc4cn(C5CC5)nc4cc3Cl)n(Cc3cc(F)c(F)cc3F)c2=O)n1 [II-0527] |  |  | < 1000 | < 100
Cc1cncc(-n2c(=O)nc(Nc3cc4cn(C)nc4cc3F)n(Cc3cc(F)c(F)cc3F)c2=O)c1 [II-0528] |  |  | < 1000 | < 100
Cn1cnc(Cn2c(=O)nc(Nc3cc4sc(N)nc4cc3Cl)n(Cc3cc(Cl)c(F)cc3F)c2=O)n1 [II-0529] |  |  | < 1000 | < 100
Cc1cncc(-n2c(=O)nc(Nc3cc4cn(CC(F)F)nc4cc3Cl)n(Cc3cc(C#N)c(F)cn3)c2=O)c1 [II-0533] |  |  | 1000 to 10000 | < 100
CNc1nc2cc(Cl)c(Nc3nc(=O)n(-c4cncc(C)c4)c(=O)n3Cc3cc(C#N)c(F)cn3)cc2s1 [II-0534] |  |  | 1000 to 10000 | < 100
Cc1cncc(-n2c(=O)nc(Nc3cc4cn(C)nc4cc3Cl)n(Cc3cc(C#N)c(F)cn3)c2=O)c1 [II-0535] |  |  | < 1000 | < 100
Cn1cnc(Cn2c(=O)nc(Nc3cc4sc(N)nc4cc3Cl)n(Cc3cc(F)c(F)cc3F)c2=O)n1 [II-0536] |  |  | 1000 to 10000 | < 100
Cc1cncc(-n2c(=O)nc(Nc3cc4cn(C)nc4cc3Cl)n(Cc3cc(C#N)cnc3C)c2=O)c1 [II-0537] |  |  | 1000 to 10000 | < 100
Cn1cc2cc(Nc3nc(=O)n(-c4cncc(Cl)c4)c(=O)n3Cc3cc(C#N)c(F)cn3)c(Cl)cc2n1 [II-0538] |  |  | 1000 to 10000 | < 100
Cc1cncc(-n2c(=O)nc(Nc3cc4cn(C)nc4cc3Cl)n(Cc3ccc(F)c(C#N)n3)c2=O)c1 [II-0539] |  |  | 1000 to 10000 | < 100
Cc1cncc(-n2c(=O)nc(Nc3cc4cn(C)nc4cc3Cl)n(Cc3cc(Cl)c(F)cn3)c2=O)c1 [II-0541] |  |  | < 1000 | < 100
Cc1ccc(C#N)cc1Cn1c(Nc2cc3cn(C)nc3cc2Cl)nc(=O)n(-c2cncc(Cl)c2)c1=O [II-0543] | 87 | 2.8 |  | 
Cc1cncc(-n2c(=O)nc(Nc3cc4cn(C(C)C)nc4cc3Cl)n(Cc3ccc(F)c(C#N)c3)c2=O)c1 [II-0544] |  |  | < 1000 | < 100
CNc1nc2cc(Cl)c(Nc3nc(=O)n(-c4cncc(C)c4)c(=O)n3Cc3cc(C#N)ccc3Cl)cc2o1 [II-0545] | 750 | 8.6 |  | 
CNc1nc2cc(Cl)c(Nc3nc(=O)n(-c4cncc(Cl)c4)c(=O)n3Cc3cc(C#N)ccc3C)cc2o1 [II-0546] |  |  | < 1000 | < 100
CCn1cc2cc(Nc3nc(=O)n(Cc4ncn(C)n4)c(=O)n3Cc3cc(F)c(F)cc3F)c(Cl)cc2n1 [II-0548] | 533 | 14 |  | 
Cn1cnc(Cn2c(=O)nc(N3CCc4ccccc4CC3)n(Cc3cc(F)c(F)c(F)c3)c2=O)n1 [II-0550] | 6420 | 1100 |  | 
Cc1cncc(-n2c(=O)nc(Nc3cc4cn(C)nc4cc3Cl)n(Cc3cc(F)c(F)cc3OCC3CCC3)c2=O)c1 [II-0551] |  |  | < 1000 | < 100

SMILES | EC50 (SARS-CoV-2; CellTiter-Glo 2.0) [nM] | IC50 (SARS-CoV-2 3CL protease; RapidFire MS) [nM] | EC50 (SARS-CoV-2; class symbols) [nM] | IC50 (SARS-CoV-2 3CL protease; given as class symbols) [nM]
CC(=O)Nc1nc2cc(Cl)c(Nc3nc(=O)n(Cc4ncn(C)n4)c(=O)n3Cc3cc(Cl)c(F)cc3F)cc2s1 [II-0554] |  |  | 1000 to 10000 | < 100
CC(=O)Nc1nc2cc(Cl)c(Nc3nc(=O)n(-c4cncc(C)c4)c(=O)n3Cc3ccc(F)c(C#N)c3)cc2s1 [II-0555] |  |  | 1000 to 10000 | < 100
CNC(=O)Cn1cc2cc(Nc3nc(=O)n(-c4cncc5ccccc45)c(=O)n3Cc3cc(F)c(F)cc3F)c(Cl)cc2n1 [II-0556] |  |  | 1000 to 10000 | < 100
CCn1cc2cc(Nc3nc(=O)n(-c4cncc(Cl)c4)c(=O)n3Cc3cc(C#N)c(F)cc3C)ccc2n1 [II-0559] | 246 | 6.4 |  | 
CC(=O)Nc1nc2cc(Cl)c(Nc3nc(=O)n(Cc4ncn(C)n4)c(=O)n3Cc3cc(F)c(F)cc3F)cc2s1 [II-0560] |  |  | 1000 to 10000 | < 100
Cn1cnc(Cn2c(=O)nc(Nc3cc4cn(CC5(NC(=O)OC(C)(C)C)CC5)nc4cc3Cl)n(Cc3cc(Cl)c(F)cc3F)c2=O)n1 [II-0562] |  |  | 1000 to 10000 | < 100
CC(=O)Nc1nc2cc(Cl)c(Nc3nc(=O)n(-c4cncc(C)c4)c(=O)n3Cc3cc(F)c(F)cc3F)cc2s1 [II-0563] |  |  | 1000 to 10000 | < 100
Cc1cncc(-n2c(=O)nc(Nc3cc4cn(CC(F)(F)F)nc4cc3Cl)n(Cc3cc(F)c(F)c(F)c3)c2=O)c1 [II-0564] |  |  | < 1000 | < 100
Cn1cnc(Cn2c(=O)nc(Nc3cc4cn(CC5(NC(=O)OC(C)(C)C)CC5)nc4cc3Cl)n(Cc3cc(F)c(F)c(Cl)c3)c2=O)n1 [II-0565] |  |  | 1000 to 10000 | < 100
CCn1cc2cc(Nc3nc(=O)n(-c4cncc(Cl)c4)c(=O)n3Cc3ccc(F)c(C#N)c3)ccc2n1 [II-0566] | 898 | 27 |  | 
Cc1cncc(-n2c(=O)nc(Nc3ccc4nn(CC(F)(F)F)cc4c3)n(Cc3ccc(F)c(C#N)c3)c2=O)c1 [II-0567] | 650 | 8.8 |  | 
Cc1cncc(-n2c(=O)nc(Nc3cc4cn(CC(F)F)nc4cc3Cl)n(Cc3cc(F)c(F)c(C#N)c3)c2=O)c1 [II-0568] | 132 | 2.1 |  | 
Cn1cnc(Cn2c(=O)nc(Nc3cc4cn(CC(F)F)nc4cc3Cl)n(Cc3cc(Cl)c(F)cc3F)c2=O)n1 [II-0569] | 419 | 4.2 |  | 
Cc1cncc(-n2c(=O)nc(Nc3ccc4nn(CC(F)F)cc4c3)n(Cc3cc(C#N)ccc3Cl)c2=O)c1 [II-0570] | 600 | 4.4 |  | 
Cc1cc(F)c(C#N)cc1Cn1c(Nc2ccc3nn(C)cc3c2)nc(=O)n(-c2cncc(Cl)c2)c1=O [II-0571] | 190 | 5.4 |  | 
Cn1cnc(Cn2c(=O)nc(Nc3cc4cn(CC(F)F)nc4cc3Cl)n(Cc3cc(F)c(F)c(Cl)c3)c2=O)n1 [II-0572] | 925 | 5.6 |  | 
Cc1cncc(-n2c(=O)nc(Nc3ccc4nn(C)cc4c3)n(Cc3cc(F)c(F)c(C#N)c3)c2=O)c1 [II-0573] | 340 | 6.1 |  | 
Cc1cncc(-n2c(=O)nc(Nc3cc4cn(CC(F)F)nc4cc3Cl)n(Cc3cc(F)c(F)cc3F)c2=O)c1 [II-0574] | 200 | 9.2 |  | 
Cn1cc2cc(Nc3nc(=O)n(-c4cncc(Cl)c4)c(=O)n3Cc3cc(Cl)c(F)cc3F)ccc2n1 [II-0576] | 530 | 17 |  | 
Cc1cncc(-n2c(=O)nc(Nc3cc4cn(CC(F)F)nc4cc3Cl)n(Cc3cc(C#N)ccc3C)c2=O)c1 [II-0577] | 85 | 1.1 |  | 

SMILES | EC50 (SARS-CoV-2; CellTiter-Glo 2.0) [nM] | IC50 (SARS-CoV-2 3CL protease; RapidFire MS) [nM] | EC50 (SARS-CoV-2; class symbols) [nM] | IC50 (SARS-CoV-2 3CL protease; given as class symbols) [nM]
COc1cncc(-n2c(=O)nc(Nc3cc4cn(C)nc4cc3Cl)n(Cc3ccc(F)c(C#N)c3)c2=O)c1 [II-0578] |  |  | 1000 to 10000 | < 100
Cc1cncc(-n2c(=O)nc(Nc3cc4cn(C)nc4cc3Cl)n(Cc3cc(C#N)ccc3Cl)c2=O)c1 [II-0579] | 67 | 2.1 |  | 
Cc1cncc(-n2c(=O)nc(Nc3cc4cn(C)nc4cc3Cl)n(Cc3cc(C#N)ccc3[N+](=O)[O-])c2=O)c1 [II-0580] |  |  | < 1000 | < 100
Cc1cncc(-n2c(=O)nc(Nc3cc4cn(C)nc4cc3Cl)n(Cc3cc(C#N)c(F)cc3CF)c2=O)c1 [II-0581] |  |  | < 1000 | < 100
Cc1cncc(-n2c(=O)nc(Nc3cc4cn(C)nc4cc3Cl)n(Cc3cc(Cl)ccc3Cl)c2=O)c1 [II-0582] |  |  | < 1000 | < 100
Cc1cncc(-n2c(=O)nc(Nc3cc4cn(C)nc4cc3Cl)n(Cc3cc(C#N)c(F)cc3C(F)F)c2=O)c1 [II-0583] |  |  | < 1000 | < 100
Cn1cnc(Cn2c(=O)nc(Nc3cc4cn(C)nc4cc3Cl)n(Cc3cc(Cl)c(F)c(Cl)c3)c2=O)n1 [II-0584] | 750 | 4.8 |  | 
Cc1cncc(-n2c(=O)nc(Nc3cc4cn(C)nc4cc3Cl)n(Cc3cc(C#N)ccc3N)c2=O)c1 [II-0585] |  |  | 1000 to 10000 | < 100
Cc1cncc(-n2c(=O)nc(Nc3cc4cn(CC(F)F)nc4cc3Cl)n(Cc3cc(Cl)c(F)cn3)c2=O)c1 [II-0586] |  |  | < 1000 | < 100
C=Cc1cc(Cn2c(Nc3cc4cn(C)nc4cc3Cl)nc(=O)n(-c3cncc(C)c3)c2=O)ccc1F [II-0587] |  |  | < 1000 | < 100
Cc1cncc(-n2c(=O)nc(Nc3cc4cn(C)nc4cc3Cl)n(Cc3cc(Cl)c(F)c(Cl)c3)c2=O)c1 [II-0588] |  |  | < 1000 | < 100
CNc1nc2cc(Cl)c(Nc3nc(=O)n(-c4cncc(C)c4)c(=O)n3Cc3cc(Cl)c(F)cn3)cc2s1 [II-0589] |  |  | 1000 to 10000 | < 100
C#Cc1cc(Cn2c(Nc3cc4cn(C)nc4cc3Cl)nc(=O)n(-c3cncc(C)c3)c2=O)ccc1F [II-0590] |  |  | < 1000 | < 100
Cn1cnc(Cn2c(=O)nc(Nc3cc4cn(C)nc4cc3Cl)n(Cc3cc(Cl)ccc3Cl)c2=O)n1 [II-0591] |  |  | < 1000 | < 100
Cn1cc2cc(Nc3nc(=O)n(-c4cncc(Cl)c4)c(=O)n3Cc3cc(Cl)c(F)cn3)c(Cl)cc2n1 [II-0592] |  |  | 1000 to 10000 | < 100
COc1cc(Cn2c(Nc3cc4cn(C)nc4cc3Cl)nc(=O)n(-c3cncc(C)c3)c2=O)ccc1F [II-0593] |  |  | 1000 to 10000 | < 100
Cc1cncc(-n2c(=O)nc(Nc3cc4cn(C)nc4cc3Cl)n(Cc3ccc(F)c(C4CC4)c3)c2=O)c1 [II-0595] | 8220 | 530 |  | 
Cc1cncc(-n2c(=O)nc(Nc3cc4cn(C)nc4cc3Cl)n(Cc3cc(C#N)ccc3C)c2=O)c1 [II-0596] | 62 | 1.6 |  | 

— patent US12559474B2, “Triazine derivatives having virus replication inhibitory activity and pharmaceutical composition comprising the same” (priority 2021, dated 2026)
